Where “and” joins values, the source holds several entries; their conditions need not be identical. Identical values can stand only once. Like-named read-outs stand apart in the source and are kept apart here.
Key:
[1] = molecular target: T1, phosphorylated IRE1α (p-IRE1α) (Homo sapiens, UniProt O75460); test: FRET-based IRE1α RNase activity assay, phosphorylated IRE1α; type: biochemical; conditions: for IC50: FRET assay; for inhibition(%): p-IRE1a
T1 construct: Human IRE1α kinase and RNase domain (residues 547–977) was subcloned into pLIB plasmid; His tag (with TEV cleavage site) (N, cleaved yes); made in house; host or cells: Sf9 insect cells, baculovirus (Bac-to-Bac)
In short: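 Sf9-expressed IRE1α kinase-RNase domain (residues 547–977), fully phosphorylated fraction, 4 nM, preincubated with compound 30 min at RT, then 200 nM FAM/BHQ1 XBP1 RNA added in HEPES pH 7.5 buffer. Fluorescence (ex 485/em 535 nm) read kinetically for 1 h at RT; inhibition from linear slopes, IC50 by concentration-response fit.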

IRE1α = molecular target: T2, IRE1α (Homo sapiens, UniProt O75460); test: Differential scanning fluorimetry (DSF), IRE1α; type: binding; conditions: for IRE1a ∆Tm: DSF, individual measurements; for IRE1 ∆Tm(°C): Supplementary Fig. 3d/3e, replicate values
T2 construct: Human IRE1α kinase and RNase domain (residues 547–977) was subcloned into pLIB plasmid; His tag (with TEV cleavage site) (N, cleaved yes); made in house; host or cells: Sf9 insect cells, baculovirus (Bac-to-Bac)
Experimental: (§1) The DSF assay was performed in PBS buffer containing 2 mM DTT, in a total reaction volume of 20 µl with indicated compounds (final 1% DMSO) and the final concentration of 1 µM IRE1α protein and 5× SYPRO Orange fluorescent dye (5000× in DMSO, Sigma S5692). The melting curve was measured at a temperature range from 25 °C to 95 °C and in increments of 1 °C for 30 s using a Bio-Rad CFX96 Real-Time PCR detection system with the FRET scan mode. The melting temperature (Tm) was obtained by fitting the melting curve to Boltzmann sigmoidal in GraphPad Prism and the thermal shift (∆Tm) was calculated by using the equation: ∆Tm = Tm(compound) -Tm(DMSO).

dephosphorylated IRE1α = molecular target: T3, dephosphorylated IRE1α (Homo sapiens, UniProt O75460); test: Isothermal titration calorimetry (ITC), incl. competitive ITC; type: binding; conditions: for KD (competitive ITC): ND, not detectable
T3 construct: Human IRE1α kinase and RNase domain (residues 547–977) was subcloned into pLIB plasmid; His tag (with TEV cleavage site) (N, cleaved yes); made in house; host or cells: Sf9 insect cells, baculovirus (Bac-to-Bac)
Experimental: The dephosphorylated IRE1α protein was used directly after purification, ITC experiments were carried out at 25 °C using MicroCal PEAQ-ITC system (Malvern) in buffer 25 mM HEPES pH 7.5, 250 mM NaCl, 1 mM TCEP, 5% glycerol, 1% DMSO. The solution was diluted to a final 1% DMSO in the same buffer as for the protein. Protein and compound solution were degassed before loading to the cell and syringe respectively. Unless otherwise noted, 200 μM of compound was loaded into the syringe and 10 μM of IRE1α protein was loaded into the sample cell. For competitive ITC, the protein was incubated with the indicated compound at 25 °C (final 1% DMSO) before loading to the cell. Instrument settings were: reference power 10 μcal/s, feedback high, stir speed 750 rpm, initial delays 60 s, injection spacing 150 s, injection duration 4 s. All experiments were performed with a single 0.4 μL injection followed by 18 (or 15), 2 μL injections. Data were analyzed using MicroCal PEAQ-ITC analysis software. The one set of sites fitting model is used for the calorimetry data analysis, with cell concentration and syringe concentration as the input parameters. For compound IA01, the N was set to 1 to improve the fit.

p-IRE1α = molecular target: T4, p-IRE1α (Homo sapiens, UniProt O75460); test: Differential scanning fluorimetry (DSF), p-IRE1α; type: binding; conditions: for p-IRE1a ∆Tm: DSF, individual measurements; for p-IRE1a ∆Tm(°C): individual replicate values
T4 construct: Human IRE1α kinase and RNase domain (residues 547–977) was subcloned into pLIB plasmid; His tag (with TEV cleavage site) (N, cleaved yes); made in house; host or cells: Sf9 insect cells, baculovirus (Bac-to-Bac)
Experimental: as §1

[2] = RNase activity, mean (± SEM), read-out: p-IRE1α IC50
[3] = source data, unit from Fig. 3, read-out: p-IRE1a IC50, individual replicates (n1-n4)
[4] = titrating 200 μM compound into 10 μM IRE1α, no competitor (DMSO), read-out: KD (ITC)

T1 sequence (O75460 547-977): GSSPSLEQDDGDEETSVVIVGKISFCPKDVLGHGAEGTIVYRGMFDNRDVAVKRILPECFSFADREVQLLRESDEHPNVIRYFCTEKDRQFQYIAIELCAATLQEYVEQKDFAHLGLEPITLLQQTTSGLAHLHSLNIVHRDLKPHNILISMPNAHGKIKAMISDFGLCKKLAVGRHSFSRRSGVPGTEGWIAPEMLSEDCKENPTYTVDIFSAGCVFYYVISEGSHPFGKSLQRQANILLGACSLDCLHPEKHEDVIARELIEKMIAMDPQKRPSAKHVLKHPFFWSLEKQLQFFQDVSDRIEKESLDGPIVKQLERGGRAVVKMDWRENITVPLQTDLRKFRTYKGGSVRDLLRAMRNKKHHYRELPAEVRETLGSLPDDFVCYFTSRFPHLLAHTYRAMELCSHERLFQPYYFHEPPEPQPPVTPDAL
T3 sequence (O75460 547-977): as above
T4 sequence (O75460 547-977): as above
T2 sequence (O75460 547-977): as above

With Cc1c(CCC(=O)O)c2cc(Br)ccc2n1C(=O)c1ccccc1 [IA107] the IC50 [1, 2] was 9.31 nM, the IC50 ([1]; read-out: p-IRE1α IC50 (RNase activity)) was 9 nM and the IC50 [1, 3] was 11.1 nM and 10.2 nM and 6.6 nM. For the same compound, the “stabilization of IRE1α in DSF” value (IRE1α) was “concentration-dependently stabilized”, the “IRE1a ∆Tm” value (IRE1α; compound 25 μM) was 4.2925 °C (2×) and 4.2325 °C and 4.2625 °C and the “IRE1a ∆Tm” value (IRE1α; compound 50 μM) was 5.1825 °C and 5.3725 °C and 5.2525 °C and 5.2825 °C. The “IRE1a ∆Tm” value (IRE1α; compound 100 μM) was 5.7825 °C and 5.7925 °C (2×) and 5.8625 °C, the Kd (dephosphorylated IRE1α; IA107 to IRE1α with 5 μM G1749, read-out: KD (competitive ITC)) was 2250 nM and the “KD (competitive ITC)” value (dephosphorylated IRE1α; IA107 to IRE1α with 50 μM G1749) was “did not show detectable binding”. For the same compound, the “KD (competitive ITC)” value (dephosphorylated IRE1α; IA107 to IRE1α with 200 μM G1749) was “did not show detectable binding”, the Kd (dephosphorylated IRE1α; [4]) was 940 nM and the Kd (dephosphorylated IRE1α; titrating 200 μM compound to 20 μM dephosphorylated IRE1α, read-out: KD (ITC)) was 1410 nM. For the same compound, the “stabilization of p-IRE1α in DSF” value (p-IRE1α) was “stabilized phosphorylated IREα concentration-dependently”, the “p-IRE1a ∆Tm” value (p-IRE1α; compound 25 μM) was 1.94 °C and 2.53 °C and 2.1 °C and 2.61 °C and the “p-IRE1a ∆Tm” value (p-IRE1α; compound 50 μM) was 3.27 °C and 3.18 °C and 2.63 °C and 3 °C. For the same compound, the “p-IRE1a ∆Tm” value (p-IRE1α; compound 100 μM) was 3.1 °C and 3.74 °C and 2.72 °C and 2.61 °C.

For Cc1c(CCC(=O)O)c2cc(Cl)ccc2n1C(=O)c1ccccc1 [IA141], the IC50 [1, 2] was 82 nM and 80 nM, the IC50 [1, 3] was 98.9 nM and 83.6 nM and 62.4 nM and the “stabilization of IRE1α in DSF” value (IRE1α) was “concentration-dependently stabilized”. The “IRE1 ∆Tm(°C)” value (IRE1α; compound 1.563 μM) was 0.63 °C and 0.81 °C and 0.65 °C and 0.58 °C, the “IRE1 ∆Tm(°C)” value (IRE1α; compound 3.125 μM) was 1.12 °C and 1.18 °C and 0.97 °C and 1.08 °C and the “IRE1 ∆Tm(°C)” value (IRE1α; compound 6.25 μM) was 1.79 °C and 1.73 °C and 1.77 °C and 1.66 °C. The “IRE1 ∆Tm(°C)” value (IRE1α; compound 12.5 μM) was 2.82 °C and 2.70 °C and 2.75 °C and 2.68 °C, the “IRE1 ∆Tm(°C)” value (IRE1α; compound 25 μM) was 3.71 °C and 3.59 °C and 3.83 °C and 3.70 °C and the “IRE1 ∆Tm(°C)” value (IRE1α; compound 50 μM) was 4.64 °C and 4.50 °C and 4.51 °C and 4.69 °C. The “IRE1 ∆Tm(°C)” value (IRE1α; compound 100 μM) was 5.27 °C (2×) and 5.25 °C and 5.36 °C, the Kd (dephosphorylated IRE1α; [4]) was 1820 nM and the “p-IRE1a ∆Tm(°C)” value (p-IRE1α; compound 1.563 μM) was 0.12 °C and -0.00583 °C and 0.32 °C and -0.0158 °C. For the same compound, the “p-IRE1a ∆Tm(°C)” value (p-IRE1α; compound 3.125 μM) was 0.72 °C and 0.27 °C (2×) and 0.32 °C, the “p-IRE1a ∆Tm(°C)” value (p-IRE1α; compound 6.25 μM) was 0.99 °C and 0.72 °C and 0.76 °C and 0.85 °C and the “p-IRE1a ∆Tm(°C)” value (p-IRE1α; compound 12.5 μM) was 1.57 °C and 1.31 °C and 1.36 °C and 1.19 °C. The “p-IRE1a ∆Tm(°C)” value (p-IRE1α; compound 25 μM) was 2.22 °C and 2.10 °C and 1.74 °C and 2.25 °C, the “p-IRE1a ∆Tm(°C)” value (p-IRE1α; compound 50 μM) was 2.87 °C and 2.43 °C and 2.53 °C and 2.76 °C and the “p-IRE1a ∆Tm(°C)” value (p-IRE1α; compound 100 μM) was 3.32 °C and 3.36 °C and 3.61 °C and 3.33 °C.

For CCOC(=O)CCc1c(C)n(C(=O)c2ccccc2)c2ccc(Br)cc12 [IAPD1], the “effect on p-IRE1α RNase activity in the FRET assay” value [1] was “did not inhibit the RNase activity”, the “inhibition(%)” value ([1]; 0.00254 μM) was -4.888% and 2.526% and -4.055% and 4.733% and the “inhibition(%)” value ([1]; 16.6667 μM) was -1.806% and 4.317% and -3.888% and 0.777%. The “inhibition(%)” value ([1]; 50 μM) was 0.943% and 1.151% and 1.193% and 2.068%.

For Cc1ccc2c(NS(=O)(=O)c3ccccc3Cl)cccc2c1Oc1ncccc1-c1ccnc(N[C@H]2CCCNC2)n1 [KIRA8], the “effect on p-IRE1α RNase activity in the FRET assay” value [1] was “inhibit the p-IRE1α RNase activity” and the IC50 [1, 2] was 3 nM.

— publication PMC12475274, “Harnessing indole scaffolds to identify small-molecule IRE1α inhibitors modulating XBP1 mRNA splicing” (Nature Communications, 2025)
